Here are results for four molecules from PMC8861431, “Tissue Pharmacokinetic Properties and Bystander Potential of Hypoxia-Activated Prodrug CP-506 by Agent-Based Modelling” (Frontiers in Pharmacology, 2022).

Test [1] deals with PORko-G and POR-R spheroids / spheroid co-cultures. As to the kind of experiment: Spheroid clonogenic survival assay (with spheroid ABM fit). It counts as cell-based, human. The note with it: for k d S: kill probability rate constant in spheroid cultures: fitted by spheroid ABM to clonogenic survival under anoxia, set to zero for the prodrug, same kd assumed for metabolites. Here is the method: Spheroid cultures were established by seeding 3 x 10^3 cells with 100 µl medium into ultra-low attachment, round bottom 96-well plates (Corning Inc, Corning, NY). Plates were briefly centrifuged (200 g, 5 min) to facilitate cell aggregation and grown in a standard incubator (37°C, 21% O2, 5% CO2) for 4 days before experiments. The culture medium was then aspirated, and the established spheroids taken into a H2/Pd-catalyst anaerobic chamber. Spheroids were washed three times with anoxia pre-equilibrated medium and left to settle for 1 h in a humidified 37°C incubator. Spheroids were removed from the anaerobic chamber after a 4 h drug exposure and washed three times with fresh culture medium. The growth of representative spheroids was monitored for 10 days using a published method of image analysis for volume determination ([Mao et al., 2018]). The remainder were enzymatically dissociated and plated at serial dilutions in 6-well plates containing 2 µM puromycin or 1 mg/ml geneticin for positive selection of POR-R and PORko-G cells, respectively. Colonies were visualized after 10 days of drug-free proliferation by staining with methylene blue (2 g/L in 50% aqueous ethanol) for 30 min. The number of colonies with at least 50 cells was manually counted to determine the plating efficiency. The surviving fraction was determined as the ratio of the plating efficiency of treated cells to that of the controls.
The spheroid ABM is described in further detail elsewhere ([Hong et al., 2018b]; [Mao et al., 2018]). The model employs two 3D grids and two solvers, a coarse grid represents the culture medium and is embedded with a much finer grid that represents the spheroid in a small cubic region at the bottom of the well. The spheroid grows in a specified volume and depth of unstirred medium containing dissolved oxygen. The geometry of the model is lattice-based, in which cells occupy cubic sites on a regular 3D lattice and grow in volume at a rate dependent on the local oxygen concentration. Autonomous cell mobility and cell-cell forces are not simulated. Cell motion occurs only as a result of cell division. Cells divide when the volume reaches a pre-set value (Vdiv) and the resultant daughter cell occupies an adjacent empty lattice site. […] The oxygen concentration at the air-medium boundary is defined by the gas phase of the culture environment. […] When oxygen concentrations fall below a critical level (<0.15 µM), cells are tagged to die and cytolysis occurs after a further 24 h leading to the central necrosis observed in in vitro spheroids. Spheroid ABM simulations were performed on a desktop Windows PC (Intel core I7 processor) from a Qt (Qt Company, https://www.qt.io/) graphical user interface passing parameters to a DLL built with Fortran95. The solution of the coarser grid provides the boundary conditions for the solution of the intracellular and extracellular concentrations within the spheroid lattice. Oxygen and drug are transported by diffusion from the boundary into the spheroid interior through the intercellular space in parallel with their uptake into cells. The model allows specification of two mass transfer constants to characterise the uptake (Kin) and efflux (Kout) rates for each compound. Prodrug metabolism is restricted to the intracellular compartment and dependent on the local oxygen concentration. […]

For the next test, the system named is HCT-116 cell line panel. The test can be described thus: Anti-proliferative IC50 assay of authentic CP-506 metabolites. It counts as cell-based, human. The note with it: Homo sapiens, HCT-116, 120 h, read-out: Anti-proliferative IC50 of metabolite. How it is done: Cells (700–1,000 per well) were seeded with 100 µl culture medium into 96-well plates and left to attach for 2 h in a humidified 37°C incubator. Compounds were prepared in culture medium and serially diluted (1:3) in the well volume. […] Aerobic experiments were performed under standard tissue culture conditions (21% O2), and the anoxic experiments were performed in parallel in a 5% H2/Pd catalyst anaerobic chamber (Shellab Bactron, Sheldon manufacturing Inc., Cornelius, OR) using pre-equilibrated media and plasticware. All anoxia experiments were conducted using a catalyst-scrubbed anaerobic chamber, unless otherwise specified, with gas oxygen measurements of <1 ppm O2. Cells were then washed three times and left to grow for 96 h before cell density determination using a sulforhodamine B (SRB) assay ([Vichai and Kirtikara, 2006]). To this end, the cells were fixed by layering 50 µl of trichloroacetic acid (40% w/v in MilliQ water) on top of the culture media (150 µl) in each well for 1 h at 4°C. Plates were rinsed under running tap water and stained with 50 µl of SRB (0.4% w/v in MilliQ water containing 1% v/v acetic acid) for 30 min at room temperature. Plates were rapidly destained by rinsing three times in tap water containing 1% (v/v) acetic acid. The stain was solubilized by adding 100 µl of 10 mM unbuffered Tris base to each well with gentle rocking for 1 h. Plates were read on a Biotek ELx808 Absorbance Microplate Reader at 490 nm using KC4 software. The IC50 value (concentration required to reduce staining to 50% of the untreated control on the same plate) for each compound was determined by interpolation using a 4-parameter logistic regression model.
FIGURE 3 Hypoxia-dependent metabolism of CP-506 leads to the formation of a multitude of short-lived species with variable cytotoxicity. (A) Bioreductive metabolism of CP-506 under normoxic (21% O2) and anoxic conditions (<1 ppm O2). Concentrations of CP-506 and its metabolites (CP-506H, CP-506M and CP-506M-Cl2) were quantified by mass spectrometry with reference to the appropriate deuterated (D8) internal standard. Values are the mean ± SEM for three independent experiments. (B) Stability of CP-506 metabolites in culture medium (without cells) at 37°C. Concentrations were determined by mass spectrometry using standard curves generated from authenticated stocks. […] IC50 values are the mean ± SEM of duplicate wells for three independent experiments. T-tests were performed using GraphPad Prism 8 (ns, p-value > 0.05; *, p-value ≤ 0.05; **, p-value ≤ 0.01; ***, p-value ≤ 0.001).

Values joined by “and” are separate entries in the source; they are usually repeats but may differ in a detail not shown here. Equal entries are not always repeated.

On to `CCN1CCN(C(=O)c2cc(N(CCBr)CCOS(C)(=O)=O)c(S(C)(=O)=O)cc2NO)CC1` [CP-506H, 2-((2-bromoethyl)(5-(4-ethylpiperazine-1-carbonyl)-4-(hydroxyamino)-2-(methylsulfonyl)phenyl)amino)ethyl methanesulfonate], for which the “k d S: kill probability rate constant in spheroid cultures” value (“k d S: kill probability rate constant” for short) in test [1] was determined as 0.0256. The IC50 in the test on HCT-116 cell line panel was less than 10 µM.
Take `CCN1CCN(C(=O)c2cc(N(CCBr)CCOS(C)(=O)=O)c(S(C)(=O)=O)cc2N)CC1` [CP-506M, 2-((4-amino-5-(4-ethylpiperazine-1-carbonyl)-2-(methylsulfonyl)phenyl)(2-bromoethyl)amino)ethyl methanesulfonate]: the “k d S: kill probability rate constant” value in test [1] is 0.0256. Further, in the test with HCT-116 cell line panel, the IC50 is less than 10 µM.
In the same order, the values of `CCN1CCN(C(=O)c2cc(N(CCCl)CCCl)c(S(C)(=O)=O)cc2N)CC1` [CP-506M-Cl2, (2-Amino-5-(bis(2-chloroethyl)amino)-4-(methylsulfonyl)phenyl)(4-ethylpiperazin-1-yl)methanone] are 0.0256 and less than 10 µM.
As for `CCN1CCN(C(=O)c2cc(N(CCBr)CCOS(C)(=O)=O)c(S(C)(=O)=O)cc2[N+](=O)[O-])CC1` [CP-506, 2-[(2-bromoethyl)-5-[(4-ethyl-1-piperazinyl)carbonyl]-2-(methylsulfonyl)-4-nitroanilino]ethyl methanesulfonate], the “Differential in anoxic sensitivity between PORko-G and POR-R spheroids” value in test [1] (clonogenic endpoint, 4 h exposure, anoxia) was 22 fold and 20 fold. Besides, the “k d S: kill probability rate constant” value in test [1] is listed as 0.

A word on the IC50: it is the concentration that inhibits the measured activity by half.
